The values below come from patent publication US9540337B2, “Gamma-glutamyl transpeptidase inhibitors and methods of use” (The Board of Regents of the University of Oklahoma, priority 2012, dated 2017).

Where “and” joins values, the source holds several entries; their conditions need not be identical. Equal values may be shown once. Read-outs that look alike come from different tables or passages of the source. Bounds are passed on as bounds.

One experiment concerns the target T1, hGGT (Homo sapiens, UniProt P19440).
T1 construct: lacking the transmembrane domain; made in house; host or cells: Pichia pastoris
Nature of the experiment: L-Glutamate Release Assay (Hydrolysis of GSH). In kind it is biochemical. As to conditions: read-out: GSH Kii. The procedure: L-Glutamate Release Assay (Hydrolysis of GSH): This assay measures the production of glutamate from the hydrolysis of GSH by GGT enzyme and has been described in detail previously. The concentration of the substrate, GSH, was varied from 5 μM to 20 μM. The concentration of the inhibitors, OU749 and its analogs, were varied from 15.6 μM to 250 μM. The reaction was initiated with the addition of 10 mU hGGT. […] All compounds were also evaluated as inhibitors of glutamate dehydrogenase, the enzyme in the second half of the L-glutamate release assay. None of the compounds in this study inhibited glutamate dehydrogenase.

For experiment [1], the target named is T2, Human GGT1 (hGGT) (Homo sapiens, UniProt P19440). The experiment can be described thus: L-GpNA Transpeptidation Assay with GlyGly as acceptor. In kind it is biochemical. The arrangement: lacking the transmembrane domain; made in house; host or cells: Pichia pastoris. As to the method:
Transpeptidation Reaction: The same assay buffer was used for both the hydrolysis reaction and the transpeptidation reaction. The transpeptidation reaction included 40 mM glycylglycine (glygly, Sigma, St. Louis, Mo.) as the acceptor. […] The concentration of L-GpNA was 3 mM for experiments in which the concentration of glygly was varied. To initiate the transpeptidation reaction, 4 mU GGT were added.
1. […] 3 and 4. […] 5 (25).
L-GpNA Transpeptidation Assay: The assay has been described previously. […] The concentration of L-GpNA was 3 mM for experiments in which the concentration of GlyGly was varied. To initiate the transpeptidation reaction, 4 mU GGT were added.

Experiment [2] deals with T2, Human GGT1 (hGGT). The experiment can be described thus: D-GpNA Hydrolysis Assay (release of pNA, 405 nm, pH 7.4). As to the method:
Enzyme Isolation: Human GGT1 (P19440), lacking the transmembrane domain, was expressed in Pichia pastoris and isolated as previously described (14). […] One unit of GGT activity was defined as the amount of enzyme that released 1 μmol of paranitroaniline/min at 37° C. at pH 7.4 in the transpeptidation reaction.
The reaction was initiated with the addition of 19 mU GGT. The reaction was incubated at 37° C. and monitored continuously at 405 nm by a Bio-Rad model 680 microplate reader with Microplate Manager 5.2 software (Bio-Rad, Hercules, Calif.).
Data Analysis: Samples in each experiment were run in triplicate. Each inhibitor was evaluated in two or more independent experiments. Double reciprocal plots were generated to assess data quality and determine the correct rate equation for data fitting. Data were fitted using the proper rate equation and the Marquardt-Levenberg algorithm supplied with the Enzfitter program (BIOSOFT, Cambridge, UK). Kinetic parameters with standard errors were estimated using a simple weighting method.
Data adhering to Michaelis-Menten Kinetics were fitted to eq. 1. Data for initial rate patterns with D-, L-GpNA varied at different fixed levels of glygly were fitted to eq. […] Data for competitive and uncompetitive inhibition were fitted to eqs. 3 and 4. Data for the dependence of Vmax and Vmax/KD-GpNA on the concentration of activator were fitted using eq. 5 (25).
In eqs 1-6, Vmax are the initial and maximum rates, respectively, Ka and Kb are Michaelis constants for substrates A and B, respectively, and Kis and Kii are slope and intercept inhibition constants. In eq. 5, a is the value of Vmax or Vmax/KD-GpNA at zero activator/inhibitor, KID is the activation or inhibition constant, and KIN is a constant that causes the parameter to go to a constant value at infinite concentrations of X, the activator/inhibitor. The product a(KID/KIN) is the value of Vmax or Vmax/KD-GpNA at infinite activator/inhibitor (25). Data for noncompetitive inhibition were fitted to eq. 6. Data for the dependence of Vmax and Vmax/KD-GpNA on the concentration of activator were fitted using […].
Enzyme Isolation: hGGT (P19440), lacking the transmembrane domain, was expressed in Pichia pastoris and isolated as previously described. […] One unit of GGT activity was defined as the amount of enzyme that released 1 μmol of paranitroaniline/min at 37° C. at pH 7.4 in the transpeptidation reaction with L-GpNA.
D-GpNA Hydrolysis Assay: The assay was carried out as previously described. […] The reaction was initiated with the addition of 19 mU GGT as determined by the L-GpNA transpeptidation assay. The reaction was incubated at 37° C. and monitored continuously at 405 nm.

Setting [3] is: Table 5, read-out: GlyGly with L-GpNA Kis.
Where [4] appears, read: Table 5, read-out: L-GpNA with GlyGly Kii.

T1 sequence (P19440 381-569 limits assumed): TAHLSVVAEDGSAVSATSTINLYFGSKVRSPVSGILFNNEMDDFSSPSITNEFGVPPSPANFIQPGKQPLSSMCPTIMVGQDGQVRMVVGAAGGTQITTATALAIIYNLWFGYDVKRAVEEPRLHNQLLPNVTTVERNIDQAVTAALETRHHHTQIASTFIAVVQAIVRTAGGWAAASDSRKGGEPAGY
T1 sequence (P19440 27-380 limits assumed): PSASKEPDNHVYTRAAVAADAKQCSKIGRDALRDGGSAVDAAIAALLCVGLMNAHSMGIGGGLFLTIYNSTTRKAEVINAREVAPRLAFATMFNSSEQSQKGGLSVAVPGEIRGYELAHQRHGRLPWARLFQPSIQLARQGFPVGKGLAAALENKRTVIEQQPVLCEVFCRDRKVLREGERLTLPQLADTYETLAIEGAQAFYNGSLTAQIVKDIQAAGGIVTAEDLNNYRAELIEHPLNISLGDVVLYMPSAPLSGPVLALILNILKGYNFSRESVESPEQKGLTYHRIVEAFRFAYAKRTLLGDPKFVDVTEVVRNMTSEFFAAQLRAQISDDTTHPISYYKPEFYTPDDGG
T2 sequence (P19440 381-569 limits assumed): as the sequence (P19440 381-569 limits assumed) above
T2 sequence (P19440 27-380 limits assumed): as the sequence (P19440 27-380 limits assumed) above

On to `Nc1ccc(S(=O)(=O)Nc2nnc(Cc3ccc(Cl)c(Cl)c3)s2)cc1` [Compound 29], for which the Ki on hGGT (GSH hydrolysis, Table 5) was found to be 905 ± 53 µM; on Human GGT1 (hGGT) [1] (setting [3]) it was 5 ± 1 µM; on Human GGT1 (hGGT) [1] (setting [4]), 34 ± 4 µM; on Human GGT1 (hGGT) [2] it was 32 ± 1 µM. Moreover, the “decrease of Kis as competitive inhibitor of GlyGly relative to OU749” value at Human GGT1 (hGGT) [1] is “up to 11 fold”.
Turning to `Nc1ccc(S(=O)(=O)Nc2nnc(Cc3ccc(Cl)cc3)s2)cc1` [Compound 28], the Ki at hGGT (GSH hydrolysis, Table 5) was 419 ± 27 µM; at Human GGT1 (hGGT) [1] (setting [3]), 7 ± 1 µM; at Human GGT1 (hGGT) [1] (setting [4]), 54 ± 1 µM; at Human GGT1 (hGGT) [2], 56 µM.
Take `Cc1cccc(Cc2nnc(NS(=O)(=O)c3ccc(N)cc3)s2)c1` [Compound 24]: the Ki on hGGT (GSH hydrolysis, Table 5) worked out at 121 ± 5 µM; on Human GGT1 (hGGT) [1] (setting [3]), 30 ± 5 µM; at Human GGT1 (hGGT) [1] (setting [4]), 129 ± 17 µM; at Human GGT1 (hGGT) [2] (read-out: D-GpNA Kii, Table 5), 109 ± 4 µM.
In the case of `Nc1ccc(Cc2nnc(NS(=O)(=O)c3ccc(N)cc3)s2)cc1` [Compound 23], the Ki at hGGT (GSH hydrolysis, Table 5) came out at 102 ± 16 µM; on Human GGT1 (hGGT) [1] (setting [3]) it was 15 ± 1 µM; on Human GGT1 (hGGT) [1] (setting [4]) it was 181 ± 20 µM; at Human GGT1 (hGGT) [2], 29 ± 3 µM.
As to `O=[N+]([O-])c1ccc(S(=O)(=O)Nc2nnc(Cc3ccc(Cl)c(Cl)c3)s2)cc1` [Compound 20], the Ki on hGGT (Compound 20, inhibition of GSH hydrolysis, Table 7) was 859 ± 83 µM; on Human GGT1 (hGGT) [1] (Table 3, read-out: Transpeptidation GlyGly Kis) it was 10 µM and 10.3 µM; on Human GGT1 (hGGT) [2] (read-out: D-GpNA Kii, Compound 20, Table 7) it was 78 ± 2 µM; on Human GGT1 (hGGT) [2] (read-out: Kii with D-GpNA, competitive inhibition of the hydrolysis reaction, Compound 20, competitive vs D-GpNA), 78 µM and 78.2 µM.
As to `COc1ccc(Cc2nnc(NS(=O)(=O)c3ccc(Cl)cc3)s2)cc1` [Compound 10], the Ki is > 250 µM on hGGT (GSH hydrolysis, Table 6); 13.4 ± 0.8 µM on Human GGT1 (hGGT) [1] (GlyGly varied, 3 mM L-GpNA, Table 2, read-out: Transpeptidation GlyGly Kis); 32.5 ± 0.9 µM at Human GGT1 (hGGT) [1] (L-GpNA varied, 40 mM GlyGly, Table 2, read-out: Transpeptidation L-GpNA Kii); 5530 ± 1460 µM at Human GGT1 (hGGT) [2] (read-out: Hydrolysis D-GpNA Kii, D-GpNA substrate, Table 2).
